This note sets out measurements from patent publication US4255435A, “Triazole compounds” (priority 1980, dated 1981).

For series [1], the system named is larvae of the cabbage white butterfly (Pieris brassicae). Nature of the series: Mortality of larvae of the cabbage white butterfly on treated cabbage leaf. In kind it is in vivo. The following applies: Table 3; cabbage leaf dipped in test solution, mortality after 24 + 24 hours, two replicates; 2880 min. On the procedure:
This example illustrates the activity of compounds of the invention against larvae of the cabbage white butterfly (Pieris brassicae).
(§1) Ten larvae were placed in a tube together with a square inch of cabbage leaf which had been dipped in the test solution and allowed to dry. After twenty-four hours untreated cabbage was added for food and after a further twenty-four hours an assessment was made of the mortality of the larvae.

For series [2] the following is noted: acute.
In a further series the test system is insects. Nature of the series: Insecticidal activity. In kind it is in vivo. The conditions noted are these: in words.
Another series in a line: Mammalian toxicity. In kind it is in vivo. The conditions noted are these: in words.
The subject of series [3] is nematode Meloidogyne incognita incognita. Nature of the series: Root knots of tomato plants in nematode-infested treated soil. Format: in vivo. The following applies: 100 parts per million per unit volume of soil, 30° C., ten days; untreated controls average more than 20 knots. On the procedure: This example illustrates the activity of compounds of the invention against the nematode Meloidogyne incognita incognita.
Small tomato plants were transferred to containers with infested soil. Sufficient test compound to give a concentration of 100 parts per million per unit volume of soil was poured onto the soil and the containers suspended in warm water at 30° C.
After ten days the plants were knocked out of the containers and the roots washed clean, the number of knots being noted. The latter was an indication of activity and a low score indicated high activity.

Series [4] relates to larvae of the diamond back moth (Plutella maculipennis). Description: Mortality of larvae of the diamond back moth on treated cabbage leaf. Format: in vivo. The following applies: Table 1; cabbage leaf dipped in test solution, mortality after 24 + 24 hours, two replicates; 2880 min. On the procedure: as §1
Two replicates were carried out for each test compound and test solutions of varying concentrations employed so that an LD50 value could be calculated.

In series [5] the test system is larvae of the codling moth (Cydia pomonella). Nature of the series: Codling moth larvae on sprayed apple (number of strikes). Format: in vivo. The following applies: Table 5, after five days, two replicates, 7200 min. An excerpt: This example illustrates the activity of compounds of the invention against the larvae of the codling moth (Cydia pomonella).
An apple sprayed with test solution was allowed to dry and a perspex ring of 1 inch diameter was attached to the apple. Ten larvae were then placed on the apple surface and contained within the ring by means of a muslin covering. After five days an assessment of mortality was made by counting the number of strikes (i.e. the number of entry holes) made by the larvae.

Series [6] relates to eggs of the cabbage root fly (Erioischia brassicae). Description: Egg hatch of cabbage root fly eggs in test solution. Format: in vivo. The following applies: Table 4; eggs stored six days, egg hatch counted, two replicates; 8640 min. From the text: This example illustrates the activity of compounds of the invention against the eggs of the cabbage root fly (Erioischia brassicae).
The eggs were then stored for six days and the egg hatch then counted.

The conditions of series [7]: acute. This is another data set of the same source.
In another series the test system is aphid Megoura viciae. Description: Aphids on sprayed broad bean plants. In kind it is in vivo. The following applies: Table 6; sprayed infested broad bean plants, 24 hours. Here is the method:
Broad bean plants 3 to 5 cm. high were infested with aphids and then sprayed with an aqueous dispersion containing varying concentrations of test compound. Each plant was kept under a lamp glass for 24 hours and then examined. In this way an LD50 value for the compounds was calculated.

For “1(2)-N,N-dimethylcarbamoyl-3-t-butyl-5-but-2-enylthio-1,2,4-triazole [methyl methyl t-butyl but-2-enyl]”, the “ACTIVITY LD50” value in series [1] worked out at 27 p.p.m; in series [4], 220 p.p.m; in [5], 10 p.p.m; in [6], 1.2 p.p.m; in the series on aphid Megoura viciae it was 0.19 p.p.m. Further, the “Oral toxicity (rat) LD50” value in [2] is 40 to 80 mg/kg. For the same substance, in the series with insects, the insecticidal activity entry is listed as “high insecticidal activity”. Further, in the series “Mammalian toxicity”, the mammalian toxicity result was “low mammalian toxicity”. The “mammalian toxicity when presented as a powder formulation” value in “Mammalian toxicity” ((wettable) powder formulation, listed as first compound) is on record as “sufficiently low”; in “Mammalian toxicity” (wettable powder formulation), “sufficiently low mammalian toxicity”. Further, the “number of knots on roots” value in series [3] is on record as at most 2 knots. Moreover, the “Dermal toxicity (rat) LD50” value (acute, dermal, rat) worked out at 40 mg/kg. Also, the “effect of wettable powder formulation on dermal toxicity” value (in words, wettable powder formulation) is “reduces the dermal toxicity”. For the same substance, the “Oral toxicity (mouse) LD50” value in series [7] lay in the range of 80 to 160 mg/kg.
